Reference: PMC10709440, “High-throughput ligand profile characterization in novel cell lines expressing seven heterologous insect olfactory receptors for the detection of volatile plant biomarkers” (Scientific Reports, 2023)
Read-outs that look alike come from different tables or passages of the source.

Assays:
Drosophila OR85b = target: T1, Drosophila OR85b (Drosophila melanogaster, UniProt Q9VHQ7); assay: Calcium ion fluorescence (GCaMP6) assay, OR85b stable HEK293 cell line; assay type: cell-based; design: key to DF norm AVERAGE OR85b: VOC ∆F divided by the plate's mean ∆F response to 50 µM VUAA1; details: for activation at 1 µM / activation at 10 µM / activation at 100 µM: HEK293, read-out: OR85b response (VUAA1-normalized response); for Average response: VUAA1-normalized response, mean of biological replicates
T1 construct: expressed in transfected cells
T1 sequence (Q9VHQ7 1-390): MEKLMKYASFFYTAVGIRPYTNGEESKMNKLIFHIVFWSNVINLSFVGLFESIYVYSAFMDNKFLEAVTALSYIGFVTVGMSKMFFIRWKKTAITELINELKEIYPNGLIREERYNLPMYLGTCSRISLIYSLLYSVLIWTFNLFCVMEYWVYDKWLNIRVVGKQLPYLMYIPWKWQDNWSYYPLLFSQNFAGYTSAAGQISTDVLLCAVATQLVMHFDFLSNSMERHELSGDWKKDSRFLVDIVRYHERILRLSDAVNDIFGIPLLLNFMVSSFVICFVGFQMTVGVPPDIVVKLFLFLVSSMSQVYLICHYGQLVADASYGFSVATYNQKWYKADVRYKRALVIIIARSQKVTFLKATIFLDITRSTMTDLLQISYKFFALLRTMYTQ
T1 sequence (Q9VNB5 1-486 partner): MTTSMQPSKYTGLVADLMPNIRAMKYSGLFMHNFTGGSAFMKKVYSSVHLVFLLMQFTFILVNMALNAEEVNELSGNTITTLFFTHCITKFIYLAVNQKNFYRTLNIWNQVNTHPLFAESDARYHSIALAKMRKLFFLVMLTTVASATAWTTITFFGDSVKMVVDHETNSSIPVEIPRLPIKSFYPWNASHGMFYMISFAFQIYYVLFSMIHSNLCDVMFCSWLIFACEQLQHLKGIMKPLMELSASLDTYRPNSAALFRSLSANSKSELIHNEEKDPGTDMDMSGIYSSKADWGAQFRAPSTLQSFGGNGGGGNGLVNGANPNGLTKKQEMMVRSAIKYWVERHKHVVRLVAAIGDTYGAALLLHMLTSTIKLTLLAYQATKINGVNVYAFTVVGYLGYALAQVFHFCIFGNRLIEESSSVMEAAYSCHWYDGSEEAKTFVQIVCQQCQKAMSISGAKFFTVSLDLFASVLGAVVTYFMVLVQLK
Description: These VUAA1 normalized ∆F values were used to compare the different receptors and ligands.
The concentration-dependent effect of the reference ligands on their cognate cell lines was examined in more detail. Twelve different ligand concentrations were measured on each cell line in an overall 0.01 μM to 100 μM concentration range with 5 repetitions with three technical replicates each time.
Twelve thousand to 18,000 cells were plated into each well of a black wall, transparent bottom 384-well microplate (Greiner) 48 h or 72 h before the measurements and were simultaneously treated with 1 μg/mL doxycycline. […] The plate has 24 columns, thus we could record responses in up to eight different cell lines in each plate. On the day of the experiment, the growth medium was replaced with 20 µL assay buffer/well (140 mM NaCl, 5 mM KCl, 2 mM CaCl2, 1 mM MgCl2, 5 mM HEPES-Na, 20 mM glucose, pH 7.3, 340 mOsm). […] Baseline fluorescence (F0) was recorded for 5 s, after which 7 µL VOC buffer (140 mM NaCl, 5 mM KCl, 2 mM CaCl2, 1 mM MgCl2, 5 mM HEPES-Na, 31 mM glucose, 0.1% DMSO, pH 7.3, 340 mOsm) was injected into each well in one row and the fluorescence response was recorded for an additional 30 s, at a rate of one read/sec. VOC solutions (VOC buffer with 4× concentration of the final measured VOC concentration, 9 µL/well was injected) were measured on the same wells in a second round with the same protocol. Each individual concentration of a specific VOC sample was recorded in three wells for the same cell line on the same microplate. The raw data were exported in xls file format, F0 and FMAX values, and the fluorescence intensity changes (∆F) were calculated in Excel (Microsoft) (Supplementary file Data summary.xlsx) using the following equation: ΔF=FMAX-F0/F0 (see also Fig. 1C). On each plate, we recorded the response of each cell line to 50 µM VUAA1. The average of these ∆F values of each cell line were used to calculate the VUAA1-normalized values for the rest of the plate, by dividing VOC response ∆F values by the average VUAA1 response ∆F value of the corresponding OR cell line. Each VOC-OR combination was measured three times as technical replicates. […] The average of these replicates were used as one ∆F and VUAA1-normalized ∆F in the following analysis.
In the next rows we tested the reference VOCs (or other VOCs known to activate the corresponding cell lines), in order to test if all cell lines are responsive. The remaining rows were used to test VOCs with unknown effect.
The recorded FMAX, F0, ∆F, VUAA1-normalized ∆F values, as well as the OR name, the name of the tested sample, and the final concentration for each well were copied into supplementary file Data summary.xlsx, that was used to summarize all the plates recorded. Here, the averages of the measurements were calculated for each receptor-VOC-concentration combination.

OR10a = tested on: OR10a; design: method as in earlier work; details: DoOR database value, ref DoOR, cited from earlier work
OR47a = tested on: OR47a; design: method as in earlier work; details: DoOR database value; ref DoOR; cited from earlier work
OR49b = tested on: OR49b; design: method as in earlier work; details: DoOR database value, ref DoOR, cited from earlier work
OR85b = tested on: OR85b; design: method as in earlier work; details: DoOR database value, ref DoOR, cited from earlier work
OR98a = tested on: OR98a; design: method as in earlier work; details: DoOR database value, ref DoOR, cited from earlier work
[1] = concentration 1, normalized fluorescence change, values below 0.05 threshold given as 0
[2] = concentration 10, normalized fluorescence change, values below 0.05 threshold given as 0
[3] = concentration 100, normalized fluorescence change, values below 0.05 threshold given as 0
[4] = ligand concentration 1 (unit not given), threshold 0.05, below shown as 0
[5] = ligand concentration 10 (unit not given), threshold 0.05, below shown as 0
[6] = ligand concentration 100 (unit not given), threshold 0.05, below shown as 0

| SMILES | OR10a DoOR response (OR10a) | OR47a DoOR response (OR47a) | OR49b DoOR response (OR49b) | OR85b DoOR response (OR85b) | OR98a DoOR response (OR98a) | activation at 1 µM (Drosophila OR85b) [%] | activation at 10 µM (Drosophila OR85b) [%] | activation at 100 µM (Drosophila OR85b) [%] | Average response (Drosophila OR85b; OR85b cell line, cc. 1 µM) | Average response (Drosophila OR85b; OR85b cell line, cc. 10 µM) | Average response (Drosophila OR85b; OR85b cell line, cc. 100 µM) | DF norm AVERAGE OR85b (Drosophila OR85b; [4]) | DF norm AVERAGE OR85b (Drosophila OR85b; [5]) | DF norm AVERAGE OR85b (Drosophila OR85b; [6]) | also measured |
| --- | --- | --- | --- | --- | --- | --- | --- | --- | --- | --- | --- | --- | --- | --- | --- |
| CC/C=C\CCO [E-3-hexenol] | 0.04 | 0.065 | 0.057 | 0.75 | 0.44 | – | – | – | – | – | – | – | – | – | OR85b response (VUAA1-normalized response) (Drosophila OR85b; VOC concentration 1 μM): 0.00; OR85b response (VUAA1-normalized response) (Drosophila OR85b; VOC concentration 10 μM): 0.00; OR85b response (VUAA1-normalized response) (Drosophila OR85b; VOC concentration 100 μM): 0.00 |
| CCCCCO [1-pentanol] | 0.034 | 0.17 | 0.09 | 0.51 | 0.23 | 0 | 0 | 0 | 0.00 | 0.00 | 0.00 | – | – | – | DF norm AVERAGE OR85b (Drosophila OR85b; [1]): 0; DF norm AVERAGE OR85b (Drosophila OR85b; [2]): 0; DF norm AVERAGE OR85b (Drosophila OR85b; [3]): 0 |
| CCCCCCCCCC=O [decanal] | 0.08 | – | – | – | – | 0 | 0 | 0 | 0.00 | 0.0324 | 0.00 | 0 | 0 | 0 | – |
| CCCCCC(=O)OCC [ethyl hexanoate] | -0.012 | 0.42 | 0.007 | 0.24 | 0.17 | 0 | 0 | 0 | 0.00 | 0.05 | 0.0232 | 0 | 0 | 0 | – |
| CC(=O)OCC(C)C [isobutyl acetate] | 0.35 | 0.58 | 0.006 | 0.39 | 0.67 | 0 | 0 | 0 | 0.044 | 0.00 | 0.03 | 0 | 0 | 0 | – |
| CCCCCCCCC=O [nonanal] | – | – | – | – | – | – | – | – | 0.00 | 0.00 | 0.00 | 0 | 0 | 0 | OR85b response (VUAA1-normalized) at 1 μM (Drosophila OR85b; OR85b cell line, VOC concentration 1 μM): 0.00; OR85b response (VUAA1-normalized) at 10 μM (Drosophila OR85b; OR85b cell line, VOC concentration 10 μM): 0.00; OR85b response (VUAA1-normalized) at 100 μM (Drosophila OR85b; OR85b cell line, VOC concentration 100 μM): 0.00; OR10a DoOR response (OR10a; OR10a): 0.05; OR49b DoOR response (OR49b; OR49b): 0.03; OR85b DoOR response (OR85b; OR85b): 0.091; OR98a DoOR response (OR98a; OR98a): 0.085 |
| Cc1cccc(O)c1 [3-methylphenol] | – | – | 0.54 | – | – | 0 | 0 | 0 | 0.0267 | 0.0173 | 0.02 | – | – | – | DF norm AVERAGE OR85b (Drosophila OR85b; [1]): 0; DF norm AVERAGE OR85b (Drosophila OR85b; [2]): 0; DF norm AVERAGE OR85b (Drosophila OR85b; [3]): 0 |
| C=C1CCC2CC1C2(C)C (stereo not drawn) [beta-pinene] | -0.005 | -0.021 | 0.011 | 0.053 | -0.003 | 0 | 10 | 9 | 0.00 | 0.10 | 0.09 | 0 | 0.09683 | 0.0913 | – |
| CCCCOC(=O)CC [butyl propanoate] | 0.011 | 0.38 | – | – | – | – | – | – | – | – | – | – | – | – | – |
| CCc1ccccc1 [ethylbenzene] | – | – | – | – | – | 0 | 0 | 0 | 0.00719 | 0.00 | 0.00 | 0 | 0 | 0 | – |
